{"source": "patent US6683070B2", "about": "“Aqueous suspension with good redispersibility” (Senju Pharmaceutical Co., Ltd., priority 1997, dated 2004)", "key": {"[1]": {"assay": "Redispersibility test: redispersion time and visual condition after standing at 25° C. for 4 days", "type": "physicochemical", "description": "(§1) Solutions containing a suspending agent in concentrations ranging from 0.000001 to 0.5 w/v % were first prepared. A test drug was added to the solutions to prepare aqueous suspensions. The surface tension of each aqueous suspension thus prepared was measured with the Du Noüy tension meter K122 (Krüss). The suspensions were then filled into 5 ml colorless polypropylene bottles and allowed to stand at 25° C. for 4 days. Each bottle was caused to spin (60 rpm) on the variable mix rotor VMR-5 (60 rpm, manufactured by Iuchi) and the time required for redispersion was measured. In addition, the condition of the redispersed particles was visually examined. As the suspending agent, hydroxypropylmethyl cellulose [Metolose 60SH (TC-5E); manufactured by Shin-Etsu Chemical Co., Ltd.; hereinafter abbreviated as HPMC], methylcellulose (Metolose SM-25; manufactured by Shin-Etsu Chemical Co., Ltd.; abbreviated as MC), or polyvinylpyrrolidone (K30; manufactured by BASF; abbreviated as PVP) was used. As the test drug, fluorometholone 0.05 w/v % or 0.1 w/v % or indomethacin 0.2 w/v % or 1.0 w/v % was used."}, "[2]": {"assay": "Surface tension of aqueous suspension (Du Noüy tension meter K122)", "type": "physicochemical", "description": "as §1"}, "[3]": {"settings": "fluorometholone 0.05 w/v % suspension, 0.0001 to 0.002 w/v % HPMC"}, "[4]": {"settings": "fluorometholone 0.1 w/v % suspension, 0.000005 to 0.0001 w/v % HPMC"}, "[5]": {"settings": "fluorometholone 0.1 w/v % suspension, 0.0001 to 0.01 w/v % HPMC"}, "[6]": {"settings": "fluorometholone 0.1 w/v % suspension, 0.0003 to 0.002 w/v % PVP"}, "[7]": {"settings": "fluorometholone 0.1 w/v % suspension, MC 0.0001 w/v % or less"}, "[8]": {"settings": "fluorometholone 0.05 w/v % suspension"}, "[9]": {"settings": "fluorometholone 0.1 w/v % suspension"}, "[10]": {"settings": "fluorometholone 0.1 w/v % suspension, MC"}, "[11]": {"settings": "fluorometholone 0.1 w/v % suspension, PVP"}, "[12]": {"settings": "indomethacin 0.2 w/v % suspension, HPMC below 0.0001 w/v %"}, "[13]": {"settings": "indomethacin 1.0 w/v % suspension, HPMC less than 0.0005 w/v %"}, "[14]": {"settings": "indomethacin 0.2 w/v % suspension"}, "[15]": {"settings": "indomethacin 1.0 w/v % suspension"}}, "data": [{"smiles": "CC(=O)[C@@]1(O)CC[C@H]2[C@@H]3C[C@H](C)C4=CC(=O)C=C[C@]4(C)[C@@]3(F)[C@@H](O)C[C@@]21C", "note": "[fluorometholone]", "values": [{"measurement": "condition of the dispersion", "setting": "[1]; [3]", "result": "satisfactory"}, {"measurement": "time required for redispersion", "setting": "[1]; [3]", "result": "about 6 seconds"}, {"measurement": "condition of the redispersed particles", "setting": "[1]; [4]", "result": "the dispersed particles aggregated and floated, failing to give a uniform suspension"}, {"measurement": "time required for redispersion", "setting": "[1]; [4]", "result": 2, "unit": "s"}, {"measurement": "condition of the redispersed particles", "setting": "[1]; [5]", "result": "a uniform suspension was obtained without aggregation of suspended particles"}, {"measurement": "redispersion time", "setting": "[1]; [5]", "result": "less than 4 seconds"}, {"measurement": "condition of the redispersed particles", "setting": "[1]; fluorometholone 0.1 w/v % suspension, 0.0001 to 0.01 w/v % MC", "result": "redispersion taking place rapidly without aggregation of dispersed particles"}, {"measurement": "condition of the dispersion", "setting": "[1]; [6]", "result": "satisfactory"}, {"measurement": "time necessary for redispersion", "setting": "[1]; [6]", "result": "about 6 seconds"}, {"measurement": "redispersion time", "setting": "[1]; fluorometholone 0.1 w/v % suspension, HPMC over 0.01 w/v %", "result": "exceeded 5 seconds"}, {"measurement": "condition of the redispersed particles", "setting": "[1]; [7]", "result": "the dispersed particles aggregated and floated, failing to give a uniform suspension"}, {"measurement": "redispersion time", "setting": "[1]; [7]", "result": "≤ 2", "unit": "s"}, {"measurement": "redispersion time", "setting": "[1]; fluorometholone 0.1 w/v % suspension, MC over 0.01 w/v %", "result": "~20", "unit": "s"}, {"measurement": "redispersion time", "setting": "[1]; fluorometholone 0.1 w/v % suspension, PVP in excess of 0.002 w/v %", "result": "≥ 18", "unit": "s"}, {"measurement": "surface tension", "setting": "[2]; fluorometholone 0.05 w/v % suspension, 0.0001 w/v % HPMC", "result": 65.1, "unit": "mN/m"}, {"measurement": "surface tension", "setting": "[2]; fluorometholone 0.05 w/v % suspension, 0.001 w/v % PVP", "result": 69.5, "unit": "mN/m"}, {"measurement": "surface tension", "setting": "[2]; fluorometholone 0.05 w/v % suspension, 0.002 w/v % HPMC", "result": 50.5, "unit": "mN/m"}, {"measurement": "HPMC concentration at which the decrease in surface tension almost ceased", "setting": "[2]; [8]", "result": 0.002, "unit": "w/v %"}, {"measurement": "HPMC concentration at which the surface tension began to decline", "setting": "[2]; [8]", "result": 0.0001, "unit": "w/v %"}, {"measurement": "PVP concentration at which the decrease in surface tension almost ceased", "setting": "[2]; fluorometholone 0.05 w/v % suspension, PVP", "result": 0.001, "unit": "w/v %"}, {"measurement": "surface tension", "setting": "[2]; fluorometholone 0.05 w/v % suspension, PVP at the concentration where the decline began (printed 0.0902 w/v % PVC)", "result": 72.3, "unit": "mN/m"}, {"measurement": "surface tension", "setting": "[2]; fluorometholone 0.1 w/v % suspension, 0.002 w/v % PVP", "result": 69.5, "unit": "mN/m"}, {"measurement": "surface tension", "setting": "[2]; fluorometholone 0.1 w/v % suspension, 0.01 w/v % MC", "result": 54.5, "unit": "mN/m"}, {"measurement": "HPMC concentration at which the decrease in surface tension almost ceased", "setting": "[2]; [9]", "result": 0.01, "unit": "w/v"}, {"measurement": "HPMC concentration at which the surface tension began to decline", "setting": "[2]; [9]", "result": 0.0001, "unit": "w/v %"}, {"measurement": "MC concentration at which the decrease in surface tension almost ceased", "setting": "[2]; [10]", "result": 0.01, "unit": "w/v %"}, {"measurement": "MC concentration at which the surface tension began to decline", "setting": "[2]; [10]", "result": 0.0001, "unit": "w/v %"}, {"measurement": "surface tension", "setting": "[2]; fluorometholone 0.1 w/v % suspension, MC 0.0001 w/v % and below", "result": "~72.5", "unit": "mN/m"}, {"measurement": "PVP concentration at which the decrease in surface tension almost ceased", "setting": "[2]; [11]", "result": 0.002, "unit": "w/v %"}, {"measurement": "PVP concentration at which the surface tension began to decline", "setting": "[2]; [11]", "result": 0.0003, "unit": "w/v %"}, {"measurement": "surface tension", "setting": "[2]; fluorometholone 0.1 w/v % suspension, PVP less than 0.0003 w/v %", "result": "~72.5", "unit": "mN/m"}]}, {"smiles": "COc1ccc2c(c1)c(CC(=O)O)c(C)n2C(=O)c1ccc(Cl)cc1", "note": "[indomethacin]", "values": [{"measurement": "condition of the redispersed particles", "setting": "[1]; indomethacin 0.2 w/v % suspension, 0.0001 to 0.01 w/v % HPMC", "result": "the drug being rapidly redispersed without aggregation"}, {"measurement": "condition of the redispersed particles", "setting": "[1]; [12]", "result": "the dispersed particles aggregated and floated, failing to give a uniform suspension"}, {"measurement": "redispersion time", "setting": "[1]; [12]", "result": "≤ 7", "unit": "s"}, {"measurement": "redispersion time", "setting": "[1]; indomethacin 0.2 w/v % suspension, HPMC over 0.01 w/v %", "result": "exceeding 12 seconds"}, {"measurement": "condition of the redispersed particles", "setting": "[1]; indomethacin 1.0 w/v % suspension, 0.0005 to 0.005 w/v % HPMC", "result": "the drug particles being rapidly redispersed without aggregation"}, {"measurement": "redispersion time", "setting": "[1]; indomethacin 1.0 w/v % suspension, HPMC exceeded 0.005 w/v %", "result": "more than 20 seconds"}, {"measurement": "condition of the redispersed particles", "setting": "[1]; [13]", "result": "the dispersed particles aggregated and floated, failing to give a uniform suspension"}, {"measurement": "redispersion time", "setting": "[1]; [13]", "result": "not more than 7 seconds"}, {"measurement": "surface tension", "setting": "[2]; indomethacin 0.2 w/v % suspension, 0.01 w/v % HPMC", "result": 48, "unit": "mN/m"}, {"measurement": "HPMC concentration at which the decrease in surface tension almost ceased", "setting": "[2]; [14]", "result": 0.01, "unit": "w/v %"}, {"measurement": "HPMC concentration at which the surface tension began to decline", "setting": "[2]; [14]", "result": 0.0001, "unit": "w/v %"}, {"measurement": "surface tension", "setting": "[2]; indomethacin 0.2 w/v % suspension, HPMC less than 0.0001 w/v %", "result": "~72", "unit": "mN/m"}, {"measurement": "surface tension", "setting": "[2]; indomethacin 1.0 w/v % suspension, 0.005 w/v % HPMC", "result": 49.7, "unit": "mN/m"}, {"measurement": "HPMC concentration at which the decrease in surface tension almost ceased", "setting": "[2]; [15]", "result": 0.005, "unit": "w/v %"}, {"measurement": "HPMC concentration at which the surface tension began to decline", "setting": "[2]; [15]", "result": 0.0005, "unit": "w/v %"}, {"measurement": "surface tension", "setting": "[2]; indomethacin 1.0 w/v % suspension, HPMC below 0.0005 w/v %", "result": "~72.73", "unit": "mN/m"}]}]}
